Experimental data taken from patent publication US9745335B2 (Blirt S.A., priority 2012, dated 2017).
In brackets after ≈: the same amount, converted by molar mass. Like-named read-outs stand apart in the source and are kept apart here.

Assays:
[1] = system: Candida tropicalis KKP 334; experiment: antifungal activity in vitro, serial dilution in RPMI 1640; format: cell-based
Protocol: (§1) For the determination of antifungal activity in vitro we used method of serial dilution in buffered medium RPMI 1640, pH 7.0, in a 96-wells microplates, according to the standard procedure (National Committee for Clinical Laboratory Standards. Reference method for broth dilution antifungal susceptibility testing of yeast, approved standard, 2nd ed. M27-A2 vol. 22 Wayne, Pa., 2002). The optical density of cells suspension was measured using a microplates reader (Victor^3, Perkin-Elmer) at the wavelength λ=531 nm (A531). On the basis of obtained results the diagrams of relation between A531 values and concentration of examined compound were made.

[2] = system: Candida lusitaniae DSM 70102; experiment: as above; format: cell-based
Protocol: as §1

[3] = system: Candida glabrata DSM 11226; experiment: as above; format: cell-based
Protocol: as §1

[4] = system: Saccharomyces cerevisiae ATCC 9763; experiment: as above; format: cell-based; conditions: RPMI 1640, pH 7.0; for Antifungal activity IC50: Saccharomyces cerevisiae ATCC 9763 (first head over MIC and IC50); for Antifungal activity MIC: Saccharomyces cerevisiae ATCC 9763
Protocol: as §1

[5] = system: Candida albicans ATCC 10231; experiment: as above; format: cell-based
Protocol: as §1

Candida krusei DSM 6128 = experiment: as above; format: cell-based
Protocol: as §1

Human erythrocytes = experiment: hemotoxicity determination (hemolytic activity); format: cell-based
Protocol: The hemotoxicity determination was carried out by the serial dilutions method, according to the procedure described earlier (Slisz, M., et al., E., J Antibiot 57: 669-678 (2004). Human erythrocytes were suspended in the solution of saline to obtain a cell density of suspension 2×10^7/ml. Suitable amounts of diluted solutions of compounds were added to the cell suspension in tubes and were incubated at 37° C. for 30 minutes and then centrifuged (1700×g, 10 min, 4° C.). The concentration of hemoglobin in supernatant after centrifugation of erythrocytes suspension were determined by measuring the absorbance at wavelength λ=540 nm (A540). The maximum level of hemolysis was obtained after incubation of cells suspension in the presence of 0.1% Tritone X-100 (control sample). […] From these graphs, the EH50 values were read which are the interpolated concentrations of compound, for which the A540 value is exactly 50% of the A540 value measured for the control sample.

HepG2 cells = experiment: cytotoxic activity against mammalian cells in tissue culture (MTT); format: cell-based, human
Protocol: (§2) All media contained 100 μg/ml of penicillin G and streptomycin. 24-wells microplates containing appropriate medium were inoculated with the cells in amount of 1.2×10^4 cells/well and allowed to stand overnight. Next, tested compounds as solution in dimethylsulfoxide (DMSO) were added in volume of 10 μl (serial 2× dilutions). To control well 10 μl of DMSO was added. Microplates with cell suspensions were incubated for 120 h at temperature 37° C. at atmosphere of 95%/5% CO2. After incubation, to all wells 200 μl of solution of 3-(4,5-dimethyltiazole-2-yl)-2,5-diphenylotetrazole bromide (MTT) in PBS (4 mg/ml) was added and plates were further incubated for 4 h at 37° C. Next, to dissolve crystals of formazane 1 ml of DMSO was added and absorption of solutions was measured at the wavelength λ=540 nm (A540), using a microplates reader (Victor^3, Perkin-Wallac). […] From these graphs IC50 values were read, that is concentration of tested compound in the presence at which A540 value is half of A540 value measured in the control sample.

CCRF-CEM cells = experiment: as above; format: cell-based, human
Protocol: as §2

LLC-PK1 cells = experiment: as above; format: cell-based, pig
Protocol: as §2

[6] = human erythrocytes, 37° C., 30 minutes

SMILES	Antifungal activity MIC [1] [µg/mL]	Antifungal activity MIC [2] [µg/mL]	Antifungal activity MIC [3] [µg/mL]	Antifungal activity IC50 [4] [µg/mL]	Antifungal activity MIC [4] [µg/mL]	Antifungal activity MIC [5] [µg/mL]	Antifungal activity MIC (Candida krusei DSM 6128) [µg/mL]	Hemotoxi EH50 (Human erythrocytes) [µg/mL]	IC50 (cytotoxic activity) (HepG2 cells) [µg/mL]	IC50 (cytotoxic activity) (CCRF-CEM cells) [µg/mL]	IC50 (cytotoxic activity) (LLC-PK1 cells) [µg/mL]	Hemotoxi EH50 (Human erythrocytes; [6]) [µg/mL]
CCN(CC)CCNC(=S)N[C@@H]1[C@H](O)[C@H](O[C@H]2/C=C/C=C/C=C/C=C/C=C/C=C/C=C/[C@H](C)[C@@H](O)[C@@H](C)[C@H](C)OC(=O)C[C@H](O)C[C@H](O)CC[C@@H](O)[C@H](O)C[C@H](O)C[C@]3(O)C[C@H](O)[C@@H](C(=O)O)[C@H](C2)O3)O[C@H](C)[C@H]1O [Compound A25, N-{3-[2-(N,N-diethylamino)ethyl]thioureidyl}amphotericin B]	2	2	4	0.85	2	2	4	>100	>100	>100	>100	
C[C@@H]1[C@H](O)[C@@H](C)/C=C/C=C/C=C/C=C/C=C/C=C/C=C/[C@H](O[C@@H]2O[C@H](C)[C@@H](O)[C@H](NC(=S)NCCN(C)C)[C@@H]2O)C[C@@H]2O[C@](O)(C[C@@H](O)C[C@@H](O)[C@H](O)CC[C@@H](O)C[C@@H](O)CC(=O)O[C@H]1C)C[C@H](O)[C@H]2C(=O)O [Compound A28, N-{3-[2-(N,N-dimethylamino)ethyl]thioureidyl}amphotericin B]	1	1	4	0.50	1	1	2	81.73	>100	>100	>100	
C[C@@H]1[C@H](O)[C@@H](C)/C=C/C=C/C=C/C=C/C=C/C=C/C=C/[C@H](O[C@@H]2O[C@H](C)[C@@H](O)[C@H](NC3CC(=O)N(Cc4ccccc4)C3=O)[C@@H]2O)C[C@@H]2O[C@](O)(C[C@@H](O)C[C@@H](O)[C@H](O)CC[C@@H](O)C[C@@H](O)CC(=O)O[C@H]1C)C[C@H](O)[C@H]2C(=O)O (stereo partly drawn) [Compound A2, N—(N-benzylsuccinimidyl)amphotericin B]	4	2	8	2.22	4	4	8	>100				
C[C@@H]1[C@H](O)[C@@H](C)/C=C/C=C/C=C/C=C/C=C/C=C/C=C/[C@H](O[C@@H]2O[C@H](C)[C@@H](O)[C@H](NC(=O)[C@H](N)COC(C)(C)C)[C@@H]2O)C[C@@H]2O[C@](O)(C[C@@H](O)C[C@@H](O)[C@H](O)CC[C@@H](O)C[C@@H](O)CC(=O)O[C@H]1C)C[C@H](O)[C@H]2C(=O)O [Compound A40, N-D-(O-tert-butyl)serylamphotericin B]	4	2	4	1.35	2	2	4					>200
C[C@@H]1[C@H](O)[C@@H](C)/C=C/C=C/C=C/C=C/C=C/C=C/C=C/[C@H](O[C@@H]2O[C@H](C)[C@@H](O)[C@H](NC(=O)C(N)Cc3ccccc3F)[C@@H]2O)C[C@@H]2O[C@](O)(C[C@@H](O)C[C@@H](O)[C@H](O)CC[C@@H](O)C[C@@H](O)CC(=O)O[C@H]1C)C[C@H](O)[C@H]2C(=O)O (stereo partly drawn) [Compound A38, N-o-fluorophenylalanylamphotericin B]	4	2	4	1.92	4	2	4					>100
C[C@@H]1[C@H](O)[C@@H](C)/C=C/C=C/C=C/C=C/C=C/C=C/C=C/[C@H](O[C@@H]2O[C@H](C)[C@@H](O)[C@H](NC3CC(=O)N(CC(C)(C)CN(C)C)C3=O)[C@@H]2O)C[C@@H]2O[C@](O)(C[C@@H](O)C[C@@H](O)[C@H](O)CC[C@@H](O)C[C@@H](O)CC(=O)O[C@H]1C)C[C@H](O)[C@H]2C(=O)O (stereo partly drawn) [Compound A7, N-{N-[3-(N,N-dimethylamino)-2,2-dimethylpropyl]succinimidyl}amphotericin B]	2	1	4	0.70	2	4	4	>100				
C[C@@H]1[C@H](O)[C@@H](C)/C=C/C=C/C=C/C=C/C=C/C=C/C=C/[C@H](O[C@@H]2O[C@H](C)[C@@H](O)[C@H](NC(=S)Nc3ccccc3)[C@@H]2O)C[C@@H]2O[C@](O)(C[C@@H](O)C[C@@H](O)[C@H](O)CC[C@@H](O)C[C@@H](O)CC(=O)O[C@H]1C)C[C@H](O)[C@H]2C(=O)O [Compound A23, N-[(3-phenyl)-thioureidyl]amphotericin B]	4	4	8	2.54	4	4	8	>100				
Cc1cc(C)c(N2C(=O)CC(N[C@@H]3[C@H](O)[C@H](O[C@H]4/C=C/C=C/C=C/C=C/C=C/C=C/C=C/[C@H](C)[C@@H](O)[C@@H](C)[C@H](C)OC(=O)C[C@H](O)C[C@H](O)CC[C@@H](O)[C@H](O)C[C@H](O)C[C@]5(O)C[C@H](O)[C@@H](C(=O)O)[C@H](C4)O5)O[C@H](C)[C@H]3O)C2=O)c(C)c1 (stereo partly drawn) [Compound A1, N—[N-(2,4,6-trimethylphenyl)succinimidyl]amphotericin B]	4	2	8	0.98	2	4	8	>100				
C[C@@H]1[C@H](O)[C@@H](C)/C=C/C=C/C=C/C=C/C=C/C=C/C=C/[C@H](O[C@@H]2O[C@H](C)[C@@H](O)[C@H](NC(=O)[C@@H](N)Cc3ccc(I)cc3)[C@@H]2O)C[C@@H]2O[C@](O)(C[C@@H](O)C[C@@H](O)[C@H](O)CC[C@@H](O)C[C@@H](O)CC(=O)O[C@H]1C)C[C@H](O)[C@H]2C(=O)O [Compound A31, N-L-p-iodophenylalanylamphotericin B]	4	4	8	2.52	4	4	8					>100
CCCN(CC1(O)OCC(O)C(O)C1O)C1C(O)C(C)OC(OC2C=CC=CC=CC=CC=CC=CC=CC(C)C(O)C(C)C(C)OC(=O)CC(O)CC(O)CCC(O)C(O)CC(O)CC3(O)CC(O)C(C(=O)O)C(C2)O3)C1O (stereo not drawn) [Compound A16, N-fructosyl-N-n-propylamphotericin B]									73.3 ± 1.20 (≈ 65 µM)	50.1 ± 1.3 (≈ 44.4 µM)	>100	
